In this test the target is T1, UGT1A3 (Homo sapiens, UniProt P35503).
T1 sequence (P35503 29-534): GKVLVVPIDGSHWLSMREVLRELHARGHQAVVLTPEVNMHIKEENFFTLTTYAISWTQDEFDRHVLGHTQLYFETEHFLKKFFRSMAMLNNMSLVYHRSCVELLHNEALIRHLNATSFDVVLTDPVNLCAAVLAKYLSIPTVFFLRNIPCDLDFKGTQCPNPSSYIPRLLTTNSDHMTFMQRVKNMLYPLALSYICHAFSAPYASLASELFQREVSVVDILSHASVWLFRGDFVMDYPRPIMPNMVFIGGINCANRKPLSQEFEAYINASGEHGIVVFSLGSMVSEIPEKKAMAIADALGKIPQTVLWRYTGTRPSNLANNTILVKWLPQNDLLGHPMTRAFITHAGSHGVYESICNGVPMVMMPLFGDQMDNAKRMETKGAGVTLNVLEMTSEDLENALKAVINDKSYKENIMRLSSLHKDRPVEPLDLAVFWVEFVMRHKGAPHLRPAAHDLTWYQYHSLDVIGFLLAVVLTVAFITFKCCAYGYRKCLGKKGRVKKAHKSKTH
The test is described as follows: Inhibition of recombinant UGT1A3 activity (4-MU glucuronidation). As for the experimental part: A panel of recombinant human UGT supersomes (UGT1A1, UGT1A3, UGT1A4, UGT1A6, UGT1A7, UGT1A8, UGT1A9, UGT1A10, UGT2B4, UGT2B7, UGT2B15, and UGT2B17) expressed in baculovirus-infected insect cells were purchased from BD Gentest Corp. (Woburn, MA, USA).
4-MU, a nonselective substrate of UGTs, was used as probe substrate for all UGTs except UGT1A4. Incubations with each individual enzyme were conducted using conditions previously described. There was a 5 min preincubation step at 37°C before the reaction was started by addition of UDPGA. The incubation mixtures were then centrifuged at 20,500 ×g for 15 min to obtain the supernatant. Aliquots (20 μL) were then analyzed by HPLC. The HPLC system (SHIMADZU, Kyoto, Japan) consisted of an SCL-10A system controller, two LC-10AT pumps, a SIL-10A auto injector, and a SPD-10AVP UV detector. […] The mobile phase consisted of 10 mM KH2PO4, pH 2.7 (A) and acetonitrile (B). The following gradient was applied at a flow rate of 1 mL/min: 0–4 min 80% A and 20% B, 4.1–8 min 50% A and 50% B, 8.1–12 min, 30% A and 70% B. All experiments were performed in two independent experiments in duplicate.
A typical incubation mixture contained recombinant human UGTs, 5 mM MgCl2, 5 mM UDPGA, 50 μg/mg protein alamethicin, 50 mM Tris-HCl buffer (pH 7.4), and various probe substrates of UGTs in the absence or presence of different concentrations of inhibitors. […] The final concentration of DMSO in the incubation system was 1% (v/v). […] Known UGT inhibitors were used as positive controls: diclofenac for UGT1A1, UGT1A6, UGT1A7, and UGT1A9; androsterone for UGT1A3, UGT2B7, and UGT2B15, phenylbutazone for UGT1A8 and UGT1A10, and hecogenin for UGT1A4, respectively. There is no positive control reported available for UGT2B4 and UGT2B17. The negative controls are the incubation without UDPGA. […] The final concentration of DMSO in the incubation system was 1% (v/v). […] There was a 5 min preincubation step at 37°C before the reaction was started by the addition of UDPGA. Incubation times were 120 min for UGT1A1, UGT1A10, UGT2B4, UGT2B15, and UGT2B17, 75 min for UGT1A3, and 30 min for UGT1A4, UGT1A6, UGT1A7, UGT1A8, and UGT1A9. The reactions were quenched by adding 100 μL acetonitrile and internal standard. The incubation mixtures were then centrifuged at 20,500 ×g for 15 min to obtain the supernatant. An aliquot of the supernatant was used for HPLC analysis as described above. All experiments were performed in two independent experiments in duplicate.
Inhibition data from experiments were graphically represented by Dixon plots. K i values were calculated by nonlinear regression using the equations for competitive inhibition (1), noncompetitive inhibition (2), or mixed inhibition (3), [22] […] The type of inhibition was determined from the enzyme inhibition models. […]

For orientation: IC50 means the concentration that gives 50% inhibition. As usually defined, the Ki is a dissociation constant, usually derived from enzyme kinetics or from competition with a known ligand.

As for `COc1ccc(-c2oc3c(CC=C(C)C)c(O)cc(O)c3c(=O)c2O)cc1` [Icaritin], the IC50 was > 100 µM. Regarding `COc1ccc(-c2oc3c(CC=C(C)C)c(O[C@@H]4O[C@H](CO)[C@@H](O)[C@H](O)[C@H]4O)cc(O)c3c(=O)c2O[C@@H]2O[C@@H](C)[C@H](O)[C@@H](O)[C@H]2O)cc1` [Icariin], the IC50 amounted to 12.4 ± 0.1 µM and the Ki turned out to be 8 ± 1.4 µM. Turning to `COc1ccc(-c2oc3c(CC=C(C)C)c(O[C@@H]4O[C@H](CO)[C@@H](O)[C@H](O)[C@H]4O)cc(O)c3c(=O)c2O)cc1` [Icariside I], the IC50 is > 100 µM.
